Experimental data taken from patent US12599575B2, “Antimicrobial adjuvant containing biphenyl derivative compound as active ingredient, and uses thereof” (KOREA RESEARCH INSTITUTE OF BIOSCIENCE AND BIOTECHNOLOGY, priority 2021, dated 2026).
Entries after “also recorded” stand apart in the source; their conditions may differ.

Experiments:
P. aeruginosa SMC-U11 = assay: checkerboard assay, MIC and FICI; conditions: for MIC Alone: 18 hours
Protocol: (§1) It was determined that when the FICI value was 0.5 or less, the effect was synergistic, when the value was 0.5 to 4.0, the effect was indifferent, and when the value was 4 or more, the effect was antagonistic.
(§2) First, in each LB agar plate in which bacteria (Klebsiella pneumonia SCH530, SCH740, SCH777, Pseudomonas aeruginosa SMC-U9, SMC-U10, SMC-U11) were grown, 3 to 4 colonies were inoculated into 4 to 5 ml of a LB broth and incubated overnight at 220 rpm at 37° C. for 16 hours. The next day, 5 ml of a culture medium diluted to 1/10000 was incubated to OD=0.08-0.1 in a 15 ml round culture tube at 220 rpm at a temperature of 37° C., and was diluted to 1/20 and dispensed at 196 ul in a 96-well plate. PA108 and PMB were dispensed at concentrations of 0 to 80 μM and 0 to 128 μg/Ml, respectively at 2 ul each and mixed in each well, and incubated at 37° C. for 18 hours to measure the OD value using a multifunctional microplate reader.

K. pneumoniae SCH740 = assay: checkerboard assay, MIC and FICI; conditions: for MIC Alone: 18 hours
Protocol: as §1, §2

[1] = system: A. baumannii colistin R357; assay: checkerboard assay, MIC and FICI; conditions: for MIC Alone: 18 hours
Protocol: First, in a LB agar plate, 3-4 colonies were inoculated into a 4-5 ml of a LB broth and incubated overnight at 37° C. and 220 rpm for 16 hours. Thereafter, 5 ml of a 1/10000 dilution of the culture medium was made and incubated to OD=0.08-0.1 at 37° C. and 220 rpm in a 15 ml round culture tube.
as §1

[2] = system: Acinetobacter baumannii strains; assay: membrane permeability (PI fluorescence); assay type: cell-based; conditions: PMB 16 μg/ml + PA108 5 μM; 30 minutes
Protocol: Specifically, for sample preparation, a colony culture grown for 16 hours was washed and resuspended in 0.01 M PBS at pH 7.4. Absorbance at 600 nm in a bacteria suspension was standardized to 0.5 in the same buffer solution, and a pigment PI9 (cat. P1304MP, Thermo Fisher Scientific, Waltham, Massachusetts, USA) was added at a final concentration of 1.67 μM. After incubation at 37° C. for 30 minutes, 198 μl of fluorescently labeled bacteria cells were added to a 96-well plate, and 16 μg/ml of PMB and 2 μl of 5 μM PA108 were added. After incubation for 30 minutes again, fluorescence was measured in a fluorescence measurement wavelength range of excitation of 535 nm and emission of 615 nm by a multifunctional microplate reader to measure membrane permeability.

[3] = system: human body-derived renal cells ACHN; assay: nephrotoxicity, renal cell viability (cell titer glo); assay type: cell-based
Protocol: First, ACHN renal cells were incubated with 2×10^4 cells/well for 24 hours, and the medium was changed to a medium in which PMB or PA108 was mixed in all wells. After 0, 24, 48, 72, and 96 hours of the treatment with PMB or PA108, cell viability was measured as ratios of the amounts of ATP at each time to 0 hour through cell titer glo to evaluate cytotoxicity.

R357 strains [4] = assay: mouse sepsis model caused by R357 infection, survival rate; assay type: in vivo; conditions: PMB 100 μg/kg + PA108 60 μg/kg intraperitoneally
Protocol: Specifically, 5×10^7 of R357 strains were intraperitoneally injected into 6 week old C57BL/6 mouses to prepare a sepsis mouse model caused by R357 infection, and PMB at a dose of 100 μg/kg and PA108 at a dose of 60 μg/kg were intraperitoneally injected alone or in combination to measure the survival rate of the mouse.

[5] = system: Acinetobacter baumannii strains (R357); assay: bacterial morphological change (fluorescence microscope, scanning electron microscope); conditions: 9 hours
Protocol: First, in a LB agar plate, a single colony was inoculated into 3 ml of a LB broth and incubated overnight at 37° C. and 220 rpm for 16 hours. Thereafter, 1% of the culture medium was diluted in a 250 ml of Erlenmeyer flask and incubated to OD=0.5, treated with PMB and PA108 at concentrations of 16 μg/ml and 5 μM, respectively, and incubated for 9 hours. The cells were centrifuged at 4° C. for 10 minutes at 8,000×g, washed three times, and resuspended in PBS. 3 ml of the cell suspension was fixed and then observed with a scanning electron microscope. A LIVE/DEAD BacLight bacterial viability kit (Cat #. L7007, Invitrogen, Waltham, Massachusetts, USA) was used to add SYTO9 (67 mM, 3 μL) which bound to DNA and RNA of living cells to emit green fluorescence and Propidium iodide (PI) (1.67 mM, 3 μL) which bound to DNA and RNA of dead cells to emit red fluorescence to add each sample at a final volume of 3 ml, and the samples were incubated in a dark room at room temperature for 15 hours and observed with a fluorescence microscope.

K. pneumoniae SCH777 = assay: checkerboard assay, MIC and FICI; conditions: for MIC Alone: 18 hours
Protocol: as §1, §2

K. pneumoniae SCH530 = assay: checkerboard assay, MIC and FICI; conditions: for MIC Alone: 18 hours
Protocol: as §1, §2

P. aeruginosa SMC-U10 = assay: checkerboard assay, MIC and FICI; conditions: for MIC Alone: 18 hours
Protocol: as §1, §2

R357 strains [6] = assay: bacterial viability test (colony forming unit)
Protocol: First, in a LB agar plate, a single colony was inoculated into a 3 ml of a LB broth and incubated overnight under the conditions of 37° C. and 220 rpm for 16 hours. Thereafter, 1% of the culture medium was diluted in a 250 ml Erlenmeyer flask and then incubated to OD=0.5.

[7] = system: Acinetobacter baumannii strains; assay: cytoplasmic membrane potential (DiSC3(5) fluorescence); assay type: cell-based; conditions: PMB and PA108 in combination
Protocol: The cell membrane potential was resuspended in 5 mM HEPES (pH 7.0, +5 mM of glucose), DiSC3(5) (3,3′-Dipropylthiadicarbocyanine Iodide) (50 μM, Cat. D306, Invitrogen, Carlsbad, California) which is a pigment sensitive to potential was added, incubation was performed for 30 minutes, and then fluorescence was measured by a multifunctional microplate reader to measure membrane potential.

[8] = system: Acinetobacter baumannii strains; assay: transcriptome analysis (RNA sequencing, DEG, gene ontology); conditions: 1 hour
Protocol: First, in a LB agar plate, a single colony was inoculated into a 3 ml of a LB broth and incubated overnight under the conditions of 37° C. and 220 rpm for 16 hours. Thereafter, 1% of the culture medium was diluted in a 250 mL Erlenmeyer flask and then incubated to OD=0.5. The culture medium was dispensed at 5 ml each into three 15 ml round culture tubes, treated with PMB at a concentration of 16 μg/ml, PA108 at a concentration of 5 μm, and PMB at a concentration of 16 μg/ml and PA108 at a concentration of 5 μm, respectively, and incubated at 37° C. and 220 rpm for 1 hour. Thereafter, bacteria were washed three times with PBS, centrifuged at 4° C. and 8,000×g for 10 minutes, and stored at −80° C.
The library for performing RNA sequencing was prepared by extracting total RNA with a TruSeq Stranded Total RNA sample preparation kit including Ribo-Zero H/M/R, and synthesizing 150 bp-sized cDNA. The quality of the synthesized cDNA library was evaluated by Agilent 2100 BioAnalyzer (Agilent, CA, USA), and after amplifying the cluster of a denatured template, paired-end sequencing which sequences both ends of a DNA fragment using Illumina Novaseq 6000 (Illumina, CA, USA) was performed. For transcriptomic data analysis, the read value was filtered, and the filtered read value was mapped to a reference genome using an aligner STAR v.2.4.0b. Thereafter, in order to measure a gene expression amount, gene expression was quantified using a KAPA library quantification kit (Kapa Biosystems, MA, USA) according to the library quantification protocol of the manufacturer.
In order to identify a differential expression gene (DEG), a gene expression level was measured with Cufflinks v2.1.1 using gene annotation database, and gene expression level count data was produced using HTSeq-count v0.6.1p1. Form the produced data, a TCC R package was used to identify a gene having a q value of less than 0.05 as a differential expression gene.
For the genes identified as the differential expression gene (DEG), gene ontology (GO) analysis in which genes were classified according to three categories of biological process, molecular function, and cellular component, and information about the function of genes is provided was performed.

P. aeruginosa SMC-U9 = assay: checkerboard assay, MIC and FICI; conditions: for MIC Alone: 18 hours
Protocol: as §1, §2

[9] = in combination with polymyxin B
[10] = A. baumannii colistin R357, PA108 + polymyxin B
[11] = PMB 16 μg/ml + PA108 5 μM, gene ontology analysis

Cc1cc([N+](=O)[O-])cc(-c2ccc(Cl)cc2)c1O [PA108]
FIC (P. aeruginosa SMC-U11): 0.0625
MIC Alone (P. aeruginosa SMC-U11): 160 µM
Interpretation (P. aeruginosa SMC-U11; PA108 + polymyxin B): Synergy
MIC Combi (P. aeruginosa SMC-U11; [9]): 10 µM
FIC (K. pneumoniae SCH740): 0.03125
MIC Alone (K. pneumoniae SCH740): 160 µM
Interpretation (K. pneumoniae SCH740; PA108 + polymyxin B): Synergy
MIC Combi (K. pneumoniae SCH740; [9]): 5 µM
FIC ([1]; A. baumannii colistin R357): 0.03125
MIC Alone ([1]; A. baumannii colistin R357): 160 µM
FICI [1, 10]: 0.06225
Interpretation [1, 10]: synergistic effect; also recorded: Synergy
MIC Combi ([1]; A. baumannii colistin R357, in combination with PB): 5 µM
overall membrane permeability [2]: did not affect the overall membrane permeability
nephrotoxicity at working concentration ([3]; 5 μM): nephrotoxicity was not shown at all
renal cell viability ([3]; concentration higher than 5 μM): ≥ 80%
survival time, simultaneous treatment (R357 strains [4]; C57BL/6 mouse, R357 i.p.): ≥ 168 h
R357 strains in organs at autopsy, simultaneous treatment (R357 strains [4]): R357 strains were not detected in organs
pathological symptoms, simultaneous treatment (R357 strains [4]; until 168 hours): without showing any pathological symptoms
cell death by LIVE/DEAD fluorescence, PA108 single treatment ([5]; PA108 5 μM): the cells did not die
cell morphology by scanning electron microscope, PA108 single treatment ([5]; PA108 5 μM): intact form in which the surface of cells was not damaged
cell death by LIVE/DEAD fluorescence, simultaneous treatment ([5]; PMB 16 μg/ml + PA108 5 μM): cell death was derived
cell morphology by scanning electron microscope, simultaneous treatment ([5]; PMB 16 μg/ml + PA108 5 μM): cells shrunk and an intracellular substance was leaked
FIC (K. pneumoniae SCH777): 0.03125
MIC Alone (K. pneumoniae SCH777): 160 µM
Interpretation (K. pneumoniae SCH777; PA108 + polymyxin B): Synergy
MIC Combi (K. pneumoniae SCH777; [9]): 5 µM
FIC (K. pneumoniae SCH530): 0.03125
MIC Alone (K. pneumoniae SCH530): 160 µM
Interpretation (K. pneumoniae SCH530; PA108 + polymyxin B): Synergy
MIC Combi (K. pneumoniae SCH530; [9]): 5 µM
FIC (P. aeruginosa SMC-U10): 0.0625
MIC Alone (P. aeruginosa SMC-U10): 160 µM
Interpretation (P. aeruginosa SMC-U10; PA108 + polymyxin B): Synergy
MIC Combi (P. aeruginosa SMC-U10; [9]): 10 µM
effect of killing (CFU), PA108 single treatment (R357 strains [6]; PA108 5 μM): did not show the effect of killing
cell death (CFU), simultaneous treatment (R357 strains [6]; PMB 16 μg/mL + PA108 5 μM): cell death was derived
bacterial killing effect (R357 strains [6]; PMB 16 μg/mL + PA108 5 μM, final): 100%
bacterial cytoplasmic membrane potential [7]: changed the bacterial cytoplasmic membrane potential
gene change compared with control group, PA108 single treatment ([8]; PA108 5 μM): significant gene change was observed
gene change compared with control group, simultaneous treatment ([8]; PMB 16 μg/ml + PA108 5 μM): significant gene change was observed
expression of genes involved in transport of substances through a cell membrane, ATPase-coupled sulfate transmembrane transporter activity [8, 11]: significantly increased
expression of genes involved in zinc ion binding, identical protein binding, ferric ion binding and peroxidase activity [8, 11]: significantly decreased
FIC (P. aeruginosa SMC-U9): 0.0625
MIC Alone (P. aeruginosa SMC-U9): 160 µM
Interpretation (P. aeruginosa SMC-U9; PA108 + polymyxin B): Synergy
MIC Combi (P. aeruginosa SMC-U9; [9]): 10 µM

polymyxin B [PMB, reference compound]
FIC (P. aeruginosa SMC-U11): 0.0625
MIC Alone (P. aeruginosa SMC-U11): 32 µg/mL
MIC Combi (P. aeruginosa SMC-U11; in combination with PA108): 2 µg/mL
FIC (K. pneumoniae SCH740): 0.00781
MIC Alone (K. pneumoniae SCH740): 128 µg/mL
MIC Combi (K. pneumoniae SCH740; in combination with PA108): 1 µg/mL
FIC ([1]; A. baumannii colistin R357): 0.031
MIC Alone ([1]; A. baumannii colistin R357): 54 µg/mL
MIC Combi ([1]; A. baumannii colistin R357, in combination with PA108): 2 µg/mL
minimal inhibitory concentration (MIC) ([1]; R357 strains, polymyxin alone): 64 µg/mL
concentration from which viability of renal cells decreased ([3]; up to 96 hours): ≥ 50 µg/mL
cell death by LIVE/DEAD fluorescence, PMB single treatment ([5]; PMB 16 μg/ml): the cells did not die
cell morphology by scanning electron microscope, PMB single treatment ([5]; PMB 16 μg/ml): intact form in which the surface of cells was not damaged
FIC (K. pneumoniae SCH777): 0.00391
MIC Alone (K. pneumoniae SCH777): 128 µg/mL
MIC Combi (K. pneumoniae SCH777; in combination with PA108): 0.5 µg/mL
FIC (K. pneumoniae SCH530): 0.0623
MIC Alone (K. pneumoniae SCH530): 8 µg/mL
MIC Combi (K. pneumoniae SCH530; in combination with PA108): 0.5 µg/mL
FIC (P. aeruginosa SMC-U10): 0.125
MIC Alone (P. aeruginosa SMC-U10): 16 µg/mL
MIC Combi (P. aeruginosa SMC-U10; in combination with PA108): 2 µg/mL
effect of killing (CFU), PMB single treatment (R357 strains [6]; PMB 16 μg/mL): did not show the effect of killing
gene change compared with control group, PMB single treatment ([8]; PMB 16 μg/ml): significant gene change was observed
FIC (P. aeruginosa SMC-U9): 0.25
MIC Alone (P. aeruginosa SMC-U9): 16 µg/mL
MIC Combi (P. aeruginosa SMC-U9; in combination with PA108): 4 µg/mL
